Experiments:
[1] = tested on: MCAO-induced focal ischemia; assay: Transient focal ischemia by middle cerebral artery occlusion; format: in vivo, mouse; details: mice, 1 µl of 500 µM i.c.v. 3h after MCAO (~12 µM); ACSF 49%
rat ASIC1a [2] = target: T1, rat ASIC1a (Rattus norvegicus, UniProt P55926); details: potency relative to amiloride
T1 sequence (P55926 1-526): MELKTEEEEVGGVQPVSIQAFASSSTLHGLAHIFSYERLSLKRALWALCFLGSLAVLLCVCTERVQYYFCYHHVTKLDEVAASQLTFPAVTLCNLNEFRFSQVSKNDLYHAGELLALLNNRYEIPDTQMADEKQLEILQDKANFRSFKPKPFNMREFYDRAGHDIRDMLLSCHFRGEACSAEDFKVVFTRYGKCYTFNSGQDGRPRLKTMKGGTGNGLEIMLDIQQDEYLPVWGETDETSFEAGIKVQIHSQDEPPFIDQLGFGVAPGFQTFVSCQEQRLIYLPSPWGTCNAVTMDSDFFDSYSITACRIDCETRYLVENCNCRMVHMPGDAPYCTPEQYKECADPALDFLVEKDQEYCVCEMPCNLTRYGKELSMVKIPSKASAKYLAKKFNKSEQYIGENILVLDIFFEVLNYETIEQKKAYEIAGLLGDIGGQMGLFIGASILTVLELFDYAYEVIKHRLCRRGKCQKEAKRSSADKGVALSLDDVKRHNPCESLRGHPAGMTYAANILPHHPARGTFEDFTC

rat ASIC1a [3] = target: T1, rat ASIC1a; assay: cell-based

Row | SMILES | infarct volume [1] [%] | increased inhibitory activity on ASIC1a currents in comparison with amiloride (rat ASIC1a [2]) | IC50 (rat ASIC1a [3]) [µM]
1 | NC(=NCc1ccccc1)NC(=O)c1nc(Cl)c(N)nc1N [Benzamil] | 33.75 | ~ 4 fold | 3.5 ± 0.18
2 | CCN(c1nc(N)c(C(=O)NC(=N)N)nc1Cl)C(C)C [EIPA, 5-(N-ethyl-N-isopropyl)amiloride] | – | – | 20.7 ± 2.18
3 | NC(=Nc1ccccc1)NC(=O)c1nc(Cl)c(N)nc1N [Phenamil] | – | ~ 2 fold | 6.95

From PMC4996284 (CNS neuroscience & therapeutics, 2016)
